Converted amounts (≈) assume the structure as drawn.
Tests used:
Format in all cases: functional, cell-based
MCF7 = test: Cytotoxicity against human MCF7 cells assessed as inhibition of cell viability after 72 hrs by SRB assay
NCI-H460 = test: Cytotoxicity against human NCI-H460 cells assessed as inhibition of cell viability after 72 hrs by SRB assay
SF-268 = test: Cytotoxicity against human SF268 cells assessed as inhibition of cell viability after 72 hrs by SRB assay

SMILES | IC50 (MCF7) [µg/mL] | IC50 (NCI-H460) [µg/mL] | IC50 (SF-268) [µg/mL]
O=c1[nH]c2ccc(Br)cc2nc1/C=C/c1ccc(Br)cc1 | 0.03223 (≈ 0.0794 µM) | 0.03632 (≈ 0.0894 µM) | 0.04066 (≈ 0.1 µM)
O=c1[nH]c2ccc(Br)cc2nc1/C=C/c1ccc(O)cc1 | 0.02281 (≈ 0.0665 µM) | 0.02281 (≈ 0.0665 µM) | 0.02283 (≈ 0.0665 µM)
Cc1ccc(/C=C/c2nc3cc(Br)ccc3[nH]c2=O)cc1 | 0.02221 (≈ 0.0651 µM) | 0.00812 (≈ 0.0238 µM) | 0.0168 (≈ 0.0492 µM)
COc1ccc(/C=C/c2nc3cc(Br)ccc3[nH]c2=O)cc1 | 0.06 (≈ 0.168 µM) | 0.06 (≈ 0.168 µM) | 0.2 (≈ 0.56 µM)
CCOC(=O)Cn1c(=O)c(C)nc2cc(Br)ccc21 | 0.0224 (≈ 0.0689 µM) | 0.01042 (≈ 0.032 µM) | 0.00863 (≈ 0.0265 µM)
Cc1nc2cc(Br)ccc2n(CC(=O)NN)c1=O | 0.01 (≈ 0.0321 µM) | 0.02 (≈ 0.0643 µM) | 0.06 (≈ 0.193 µM)
Cc1nc2cc(Br)ccc2nc1N1CCCCC1 | 0.03361 (≈ 0.11 µM) | 0.04032 (≈ 0.132 µM) | 0.03044 (≈ 0.0994 µM)
Cc1nc2cc(Br)ccc2nc1Nc1ccc(S(=O)(=O)N2CCCCC2)cc1 | 0.00162 (≈ 0.00351 µM) | 0.67 (≈ 1.45 µM) | 0.0018 (≈ 0.0039 µM)
Cc1nc2cc(Br)ccc2nc1NN | 0.02427 (≈ 0.0959 µM) | 0.02062 (≈ 0.0815 µM) | 0.01682 (≈ 0.0665 µM)
Cc1cc(C)n(-c2nc3ccc(Br)cc3nc2C)n1 | 0.02355 (≈ 0.0742 µM) | 0.0346 (≈ 0.109 µM) | 0.04541 (≈ 0.143 µM)
Cc1nc2cc(Br)ccc2n2nnnc12 | 0.03309 (≈ 0.125 µM) | 0.0208 (≈ 0.0788 µM) | 0.0203 (≈ 0.0769 µM)
Cc1nc2cc(Br)ccc2nc1Sc1ccccc1 | 0.01222 (≈ 0.0369 µM) | 0.01842 (≈ 0.0556 µM) | 0.01816 (≈ 0.0548 µM)
Cc1nc2cc(Br)ccc2nc1Oc1ccccc1N | 0.02 (≈ 0.0606 µM) | 0.03 (≈ 0.0909 µM) | 0.06 (≈ 0.182 µM)
Cc1nc2cc(Br)ccc2nc1Oc1ccc(N)cc1 | 0.81 (≈ 2.45 µM) | 0.52 (≈ 1.57 µM) | 0.08 (≈ 0.242 µM)
Cc1nc2cc(Br)ccc2nc1Oc1ccc(/N=C\c2ccc(Cl)cc2)cc1 | 0.08 (≈ 0.177 µM) | 0.08 (≈ 0.177 µM) | 0.02 (≈ 0.0442 µM)
Cc1nc2cc(Br)ccc2nc1Oc1ccc(C=O)cc1 | 0.03278 (≈ 0.0955 µM) | 0.02845 (≈ 0.0829 µM) | 0.0405 (≈ 0.118 µM)
Cc1nc2cc(Br)ccc2nc1Oc1ccc(/C=N\c2ccc(Cl)cc2)cc1 | 0.01263 (≈ 0.0279 µM) | 0.01866 (≈ 0.0412 µM) | 0.03043 (≈ 0.0672 µM)
COc1cccc2c1C(=O)c1c(O)c3c(c(O)c1C2=O)C[C@@](O)(C(=O)CO)C[C@@H]3O[C@H]1C[C@H](N)[C@H](O)[C@H](C)O1 [DOXORUBICIN] | 0.04 (≈ 0.0736 µM) | 0.09 (≈ 0.166 µM) | 0.09 (≈ 0.166 µM)

Source: ChEMBL document CHEMBL3616438, “Molecular modeling studies and synthesis of novel quinoxaline derivatives with potential anticancer activity as inhibitors of c-Met kinase” (Bioorg Med Chem, 2015)
